The source made the active and inactive calls. No cut-off for these calls is given here.
Key:
[1] = target: Epithelial discoidin domain-containing receptor 1 (Homo sapiens, UniProt Q08345); test: Inhibition of human DDR1 using KKSRGDYMTMQIG as substrate in presence of [gamma-33P]ATP by scintillation counting method
SR = test: Growth inhibition of human SR cells measured after 48 hrs by SRB assay; type: functional
HCT-116 [2] = test: Induction of apoptosis in human HCT-116 cells assessed as early apoptotic cells at 2.5 uM measured after 48 hrs by Annexin-V Alexa Fluor488/propidium iodide staining based flow cytometry (reference value: 7.7%); type: functional
RXF 393 = test: Growth inhibition of human RXF 393 cells measured after 48 hrs by SRB assay; type: functional
NCI-H226 = test: Growth inhibition of human NCI-H226 cells measured after 48 hrs by SRB assay; type: functional
SK-MEL-2 = test: Growth inhibition of human SK-MEL-2 cells measured after 48 hrs by SRB assay; type: functional
SK-MEL-28 = test: Growth inhibition of human SK-MEL-28 cells measured after 48 hrs by SRB assay; type: functional
Sus scrofa = species on record: Sus scrofa; test: Induction of porcine brain tubulin polymerization at 10 uM measured at 30 secs interval for 60 mins by fluorescence assay; type: tissue-based
OVCAR-3 = test: Growth inhibition of human OVCAR-3 cells measured after 48 hrs by SRB assay; type: functional
MCF7 = test: Growth inhibition of human MCF7 cells measured after 48 hrs by SRB assay; type: functional
HCT-116 [3] = test: Induction of apoptosis in human HCT-116 cells assessed as late apoptotic cells at 1.25 uM measured after 24 hrs by Annexin-V Alexa Fluor488/propidium iodide staining based flow cytometry (reference value: 1%); type: functional
HCT-116 [4] = test: Cell cycle arrest in human HCT-116 cells assessed as increase in G0/G1-phase accumulation measured after 24 to 48 hrs by propidium iodide staining based flow cytometry; type: functional; conditions: dose 1.25-5 µM, time 24-48 hrs
CAKI-1 = test: Growth inhibition of human CAKI-1 cells measured after 48 hrs by SRB assay; type: functional
HCT-116 [5] = test: Induction of apoptosis in human HCT-116 cells assessed as viable cells at 5 uM measured after 48 hrs by Annexin-V Alexa Fluor488/propidium iodide staining based flow cytometry (reference value: 82.3%); type: functional; conditions: read-out: Activity
HCT-116 [6] = test: Induction of apoptosis in human HCT-116 cells assessed as viable cells at 2.5 uM measured after 24 hrs by Annexin-V Alexa Fluor488/propidium iodide staining based flow cytometry (reference value: 88.1%); type: functional; conditions: read-out: Activity
[7] = target: Serine/threonine-protein kinase B-raf (Homo sapiens, UniProt P15056); test: Inhibition of human BRAF using MEK1 (K97R) as substrate in presence of [gamma-33P]ATP by scintillation counting method
Sequence of Serine/threonine-protein kinase B-raf (P15056 whole entry): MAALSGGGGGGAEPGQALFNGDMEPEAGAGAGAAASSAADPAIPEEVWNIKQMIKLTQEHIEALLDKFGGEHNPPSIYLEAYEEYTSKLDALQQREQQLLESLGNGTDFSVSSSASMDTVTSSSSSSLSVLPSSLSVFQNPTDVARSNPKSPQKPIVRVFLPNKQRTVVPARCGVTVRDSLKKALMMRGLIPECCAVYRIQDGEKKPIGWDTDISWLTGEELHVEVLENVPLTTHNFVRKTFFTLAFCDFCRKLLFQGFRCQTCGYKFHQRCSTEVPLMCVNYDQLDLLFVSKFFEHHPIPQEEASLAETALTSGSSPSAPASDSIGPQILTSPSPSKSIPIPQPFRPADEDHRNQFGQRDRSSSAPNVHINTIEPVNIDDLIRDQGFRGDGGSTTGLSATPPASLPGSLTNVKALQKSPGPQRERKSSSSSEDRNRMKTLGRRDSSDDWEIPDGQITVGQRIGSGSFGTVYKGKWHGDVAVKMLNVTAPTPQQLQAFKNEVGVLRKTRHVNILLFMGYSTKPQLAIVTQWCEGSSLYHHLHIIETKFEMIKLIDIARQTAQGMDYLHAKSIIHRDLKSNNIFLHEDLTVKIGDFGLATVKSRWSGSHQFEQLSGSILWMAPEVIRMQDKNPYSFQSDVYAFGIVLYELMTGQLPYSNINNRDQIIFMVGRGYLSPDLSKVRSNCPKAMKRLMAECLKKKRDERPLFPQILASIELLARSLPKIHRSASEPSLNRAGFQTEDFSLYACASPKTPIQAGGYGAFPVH

[8] = Cytotoxicity against human L132 cells assessed as cell viability at 3 uM measured after 48 hrs by EZ-Cytox assay relative to control; type: cell-based; conditions: read-out: Activity
SW-620 = test: Growth inhibition of human SW-620 cells measured after 48 hrs by SRB assay; type: functional
HCT-116 [9] = test: Induction of apoptosis in human HCT-116 cells assessed as early apoptotic cells at 1.25 uM measured after 48 hrs by Annexin-V Alexa Fluor488/propidium iodide staining based flow cytometry (reference value: 7.7%); type: functional
MOLT-4 = test: Growth inhibition of human MOLT-4 cells measured after 48 hrs by SRB assay; type: functional
786-0 = test: Growth inhibition of human 786-0 cells measured after 48 hrs by SRB assay; type: functional
T47D = test: Growth inhibition of human T47D cells measured after 48 hrs by SRB assay; type: functional
SNB-75 = test: Growth inhibition of human SNB-75 cells measured after 48 hrs by SRB assay; type: functional
HCC 2998 = test: Growth inhibition of human HCC 2998 cells measured after 48 hrs by SRB assay; type: functional
[10] = Cytotoxicity against African green monkey Vero cells assessed as cell viability at 10 uM measured after 48 hrs by EZ-Cytox assay relative to control; type: cell-based; conditions: chlorocebus sabaeus, read-out: Activity
HCT-116 [11] = test: Induction of apoptosis in human HCT-116 cells assessed as necrotic cells at 5 uM measured after 48 hrs by Annexin-V Alexa Fluor488/propidium iodide staining based flow cytometry (reference value: 7.7%); type: functional
K562 = test: Growth inhibition of human K562 cells measured after 48 hrs by SRB assay; type: functional
SNB-19 = test: Growth inhibition of human SNB-19 cells measured after 48 hrs by SRB assay; type: functional
HCT-116 [12] = test: Induction of apoptosis in human HCT-116 cells assessed as necrotic cells at 2.5 uM measured after 48 hrs by Annexin-V Alexa Fluor488/propidium iodide staining based flow cytometry (reference value: 7.7%); type: functional
A549 = test: Growth inhibition of human A549 cells measured after 48 hrs by SRB assay; type: functional
HCT-116 [13] = test: Induction of apoptosis in human HCT-116 cells assessed as early apoptotic cells at 2.5 uM measured after 24 hrs by Annexin-V Alexa Fluor488/propidium iodide staining based flow cytometry (reference value: 6.3%); type: functional
Malme-3M = test: Growth inhibition of human Malme-3M cells measured after 48 hrs by SRB assay; type: functional
[14] = Cytotoxicity against human L132 cells assessed as cell viability at 10 uM measured after 48 hrs by EZ-Cytox assay relative to control; type: cell-based; conditions: read-out: Activity
[15] = target: High affinity nerve growth factor receptor (Homo sapiens, UniProt P04629); test: Inhibition of human TRKA using poly[Glu:Tyr] (4:1) as substrate in presence of [gamma-33P]ATP by scintillation counting method
Sequence of High affinity nerve growth factor receptor (P04629 whole entry): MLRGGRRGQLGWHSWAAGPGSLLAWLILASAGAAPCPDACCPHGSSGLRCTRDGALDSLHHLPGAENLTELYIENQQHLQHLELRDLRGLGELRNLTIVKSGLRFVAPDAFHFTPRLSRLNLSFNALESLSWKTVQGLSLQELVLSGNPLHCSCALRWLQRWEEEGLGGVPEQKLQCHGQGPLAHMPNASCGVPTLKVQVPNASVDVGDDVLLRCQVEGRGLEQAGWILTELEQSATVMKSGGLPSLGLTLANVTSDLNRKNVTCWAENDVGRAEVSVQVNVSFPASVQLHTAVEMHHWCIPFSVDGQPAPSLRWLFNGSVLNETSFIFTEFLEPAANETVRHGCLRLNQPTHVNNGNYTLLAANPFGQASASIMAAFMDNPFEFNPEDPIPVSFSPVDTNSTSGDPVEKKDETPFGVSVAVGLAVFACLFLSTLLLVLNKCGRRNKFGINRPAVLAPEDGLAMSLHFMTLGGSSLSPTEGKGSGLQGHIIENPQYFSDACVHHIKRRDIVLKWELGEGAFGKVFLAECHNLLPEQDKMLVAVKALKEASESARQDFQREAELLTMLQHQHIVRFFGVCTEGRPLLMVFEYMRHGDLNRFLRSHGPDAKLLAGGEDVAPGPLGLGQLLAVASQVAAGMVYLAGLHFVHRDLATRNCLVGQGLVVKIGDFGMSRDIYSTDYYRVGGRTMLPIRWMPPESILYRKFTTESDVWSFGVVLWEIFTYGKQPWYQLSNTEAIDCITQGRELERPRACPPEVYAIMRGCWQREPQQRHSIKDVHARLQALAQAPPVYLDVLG

UACC-62 = test: Growth inhibition of human UACC-62 cells measured after 48 hrs by SRB assay; type: functional
RPMI-8226 = test: Growth inhibition of human RPMI-8226 cells measured after 48 hrs by SRB assay; type: functional
NCI-H522 = test: Growth inhibition of human NCI-H522 cells measured after 48 hrs by SRB assay; type: functional
A498 = test: Growth inhibition of human A498 cells measured after 48 hrs by SRB assay; type: functional
Homo sapiens = species on record: Homo sapiens; test: Selectivity ratio of IC50 for inhibition of human BRAF V600E mutant to IC50 for inhibition of human CRAF
[16] = Cytotoxicity against African green monkey Vero cells assessed as cell viability at 1 uM measured after 48 hrs by EZ-Cytox assay relative to control; type: cell-based; conditions: chlorocebus sabaeus, read-out: Activity
TK-10 = test: Growth inhibition of human TK-10 cells measured after 48 hrs by SRB assay; type: functional
[17] = system: Panel NCI-60 (60 carcinoma cell lines); test: Growth inhibition of human Panel NCI-60 (60 carcinoma cell lines) cells at 10 uM measured after 48 hrs by SRB assay relative to control; type: functional; conditions: read-out: GI
SN12C = test: Growth inhibition of human SN12C cells measured after 48 hrs by SRB assay; type: functional

Sequence of Epithelial discoidin domain-containing receptor 1 (Q08345 whole entry, the tested form may be a part): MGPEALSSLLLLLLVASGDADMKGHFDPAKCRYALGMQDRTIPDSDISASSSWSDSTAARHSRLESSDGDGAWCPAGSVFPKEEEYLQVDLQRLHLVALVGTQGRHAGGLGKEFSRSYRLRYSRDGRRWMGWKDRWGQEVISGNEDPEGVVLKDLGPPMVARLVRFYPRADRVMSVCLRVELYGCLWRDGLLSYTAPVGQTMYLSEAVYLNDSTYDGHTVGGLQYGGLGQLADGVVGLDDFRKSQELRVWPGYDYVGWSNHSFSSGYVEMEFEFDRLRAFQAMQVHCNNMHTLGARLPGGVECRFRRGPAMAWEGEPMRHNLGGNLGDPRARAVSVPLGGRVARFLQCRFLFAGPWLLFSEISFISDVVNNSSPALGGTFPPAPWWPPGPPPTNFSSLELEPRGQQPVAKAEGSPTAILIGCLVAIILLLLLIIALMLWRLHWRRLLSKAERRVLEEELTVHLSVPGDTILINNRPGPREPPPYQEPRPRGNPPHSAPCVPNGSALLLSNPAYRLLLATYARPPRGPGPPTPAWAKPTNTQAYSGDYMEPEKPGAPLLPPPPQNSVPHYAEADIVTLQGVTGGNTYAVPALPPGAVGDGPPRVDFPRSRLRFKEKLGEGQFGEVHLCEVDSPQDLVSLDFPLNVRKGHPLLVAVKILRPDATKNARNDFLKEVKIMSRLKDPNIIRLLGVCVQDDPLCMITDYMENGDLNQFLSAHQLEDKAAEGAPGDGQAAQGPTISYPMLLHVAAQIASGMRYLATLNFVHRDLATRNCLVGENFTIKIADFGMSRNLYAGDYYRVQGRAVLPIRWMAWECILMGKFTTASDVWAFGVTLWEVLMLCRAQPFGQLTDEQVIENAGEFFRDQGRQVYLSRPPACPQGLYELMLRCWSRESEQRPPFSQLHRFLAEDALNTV

`COc1cccc2nc(Nc3cccc(NC(=O)c4ccc(N5CCN(C)CC5)c(C(F)(F)F)c4)c3)ccc12` gave an IC50 [1] of 2250 nM, a GI50 (SR) of 1130 nM and an Activity (HCT-116 [2]) of 14.3%. For the same compound, the GI50 (RXF 393) was 802 nM, the GI50 (NCI-H226) was 2260 nM and the GI50 (SK-MEL-2) was 1360 nM. The GI50 (SK-MEL-28) was 896 nM, the Activity (Sus scrofa) was “Active” and the GI50 (OVCAR-3) was 1210 nM. It also gave a GI50 (MCF7) of 851 nM, an LC50 (MCF7) of 4250 nM and a TGI (MCF7) of 1900 nM. The Activity (HCT-116 [3]) was 1.7%, the Activity (HCT-116 [4]) was “Dose-dependent effect” and the GI50 (CAKI-1) was 1120 nM. For the same compound, the viability at 5 µM (HCT-116 [5]) was 61.5%, the viability at 2.5 µM (HCT-116 [6]) was 81.2% and the IC50 [7] was 2940 nM. It also gave a viability at 48 h, 3 µM [8] of 88.6%, a GI50 (SW-620) of 968 nM and an Activity (HCT-116 [9]) of 14%. For the same compound, the GI50 (MOLT-4) was 876 nM, the GI50 (786-0) was 923 nM and the GI50 (T47D) was 1000 nM. It also gave a GI50 (SNB-75) of 695 nM, a GI50 (HCC 2998) of 950 nM and a viability at 48 h, 10 µM [10] of 77.1%. For the same compound, the Activity (HCT-116 [11]) was 3.5%, the GI50 (K562) was 1100 nM and the GI50 (SNB-19) was 1110 nM. It also gave an Activity (HCT-116 [12]) of 4.2%, a GI50 (A549) of 1430 nM and an Activity (HCT-116 [13]) of 6.1%. The GI50 (Malme-3M) was 816 nM, the LC50 (concentration killing 50% of cells) (Malme-3M) was 3200 nM and the TGI (Malme-3M) was 1620 nM. It also gave a viability at 48 h, 10 µM [14] of 66.1%, an IC50 [15] of 34000 nM and a GI50 (UACC-62) of 1060 nM. For the same compound, the GI50 (RPMI-8226) was 1650 nM, the LC50 (concentration killing 50% of cells) (RPMI-8226) was > 50000 nM and the TGI (RPMI-8226) was 6440 nM. It also gave a GI50 (NCI-H522) of 1040 nM, a GI50 (A498) of 1800 nM and a Ratio IC50 (Homo sapiens) of 2. It also gave a viability at 48 h, 1 µM [16] of 86.5%, a GI50 (TK-10) of 2010 nM and an inhibition of growth at 10 µM [17] of 86.8%. For the same compound, the GI50 (SN12C) was 1700 nM.
`CCN1CCN(c2cc(C(=O)Nc3cccc(Nc4ccc5c(OC)cccc5n4)c3)cc(C(F)(F)F)c2)CC1` gave an IC50 [1] of 538 nM, a GI50 (SR) of 883 nM and an Activity (HCT-116 [2]) of 19%. It also gave a GI50 (RXF 393) of 918 nM, a GI50 (NCI-H226) of 2850 nM and a GI50 (SK-MEL-2) of 5300 nM. For the same compound, the GI50 (SK-MEL-28) was 846 nM, the Activity (Sus scrofa) was “Active” and the GI50 (OVCAR-3) was 3410 nM. The GI50 (MCF7) was 679 nM, the LC50 (MCF7) was 17600 nM and the TGI (MCF7) was 2280 nM. For the same compound, the Activity (HCT-116 [3]) was 0.6%, the Activity (HCT-116 [4]) was “Dose-dependent effect” and the GI50 (CAKI-1) was 917 nM. For the same compound, the viability at 5 µM (HCT-116 [5]) was 72%, the viability at 2.5 µM (HCT-116 [6]) was 82.9% and the IC50 [7] was 2230 nM. It also gave a viability at 48 h, 3 µM [8] of 82.8%, a GI50 (SW-620) of 3670 nM and an Activity (HCT-116 [9]) of 16.6%. It also gave a GI50 (MOLT-4) of 616 nM, a GI50 (786-0) of 3730 nM and a GI50 (T47D) of 2050 nM. It also gave a GI50 (SNB-75) of 1050 nM, a GI50 (HCC 2998) of 720 nM and a viability at 48 h, 10 µM [10] of 74.1%. For the same compound, the Activity (HCT-116 [11]) was 0.5%, the GI50 (K562) was 910 nM and the GI50 (SNB-19) was 2100 nM. It also gave an Activity (HCT-116 [12]) of 1.2%, a GI50 (A549) of 1050 nM and an Activity (HCT-116 [13]) of 15.6%. For the same compound, the GI50 (Malme-3M) was 611 nM, the LC50 (concentration killing 50% of cells) (Malme-3M) was 2880 nM and the TGI (Malme-3M) was 1330 nM. For the same compound, the viability at 48 h, 10 µM [14] was 68.2%, the IC50 [15] was 1670 nM and the GI50 (UACC-62) was 1500 nM. The GI50 (RPMI-8226) was 1200 nM, the LC50 (concentration killing 50% of cells) (RPMI-8226) was 15300 nM and the TGI (RPMI-8226) was 5320 nM. For the same compound, the GI50 (NCI-H522) was 1010 nM, the GI50 (A498) was 4940 nM and the Ratio IC50 (Homo sapiens) was 2. It also gave a viability at 48 h, 1 µM [16] of 81.5%, a GI50 (TK-10) of 3470 nM and an inhibition of growth at 10 µM [17] of 95%. It also gave a GI50 (SN12C) of 1390 nM.
